# Like-named read-outs stand apart in the source and are kept apart here.
# Assays:
# [1] = Distribution in plasma, lung homogenate, ELF and AMs after oral dose; type: in vivo, Sprague-Dawley rats; conditions: rat, single oral dose 100 mg/kg; for concentration at 8 h / concentration at 30 h / concentration at 0.083 h / concentration at 0.5 h: both sexes, Sprague-Dawley
# Description: After the oral administration of 100 mg/kg IMB-YH-4py5-2H, rats from each group (six rats per group and three rats per sex) were sacrificed at 5 min, 0.5 h, 8 h, and 30 h. Rat lungs were collected, rinsed with saline, wiped dry, accurately weighed and homogenized with ultrapure water. The homogenate was kept at −20°C until analysis.
# As two representative infectious sites in lower respiratory tract infections, lung epithelial lining fluid (ELF) and alveolar macrophages (AMs) were investigated to determine the distribution of IMB-YH-4py5-2H. Freshly collected rat lungs were lavaged three times from the trachea with 5 mL of ice-cold phosphate buffer (pH 7.4). The lavage fluid was centrifuged at 4°C (650 × g, 5 min) to separate AMs from the ELF, immediately. The cell counts of the resuspended AMs were assessed by using the haemocytometer. The AMs were extracted with 1 mL of 0.1 M NaOH for analysis. To calculate the concentrations of IMB-YH-4py5-2H in ELF and AMs, reported data were employed. As reported, the total volume of ELF was estimated to be 393 μL/rat (~200 g body weight), and the intracellular volume of a single AM was 1166 μm^3 [25]. Based on the reported volume of a single AM, the raw data of IMB-YH-4py5-2H concentrations in AMs, expressed as ng/10^5 cells, were converted to the values with the unit of μg/mL (Eq 1), which was consistent with the unit of concentrations in plasma and ELF and easier for comparison.
# CAM (μg/mL) is the concentration of IMB-YH-4py5-2H expressed as μg/mL, CAM (ng/10^5 cells) is the concentration with the unit of ng/10^5 cell, and V is the volume of a single AM (1166 μm^3).
# The homogenate, ELF, and AM samples were processed as described in “Sample processing” and injected into the LC-MS/MS system for analysis.
# [2] = tested on: intracellular M. tuberculosis H37Rv; test: Intracellular activity assay in infected macrophages; type: cell-based, Mycobacterium tuberculosis; conditions: for Log10CFU: three-day incubation, infected J744 macrophages, untreated 6.47±0.04
# [3] = Stability of QC samples in rat plasma; type: in vitro ADME; conditions: for %Theoretical, Autosampler: extracted plasma QC; for %Theoretical, Long-term / %Theoretical, 24 h ambient / %Theoretical, freeze-thaw: rat plasma; for %Theoretical, Long-term: 2 weeks at -20°C
# Description: Six replicates of the QC samples at low, medium and high concentrations subjected to the conditions below were evaluated for the stability of IMB-4py5-2H in rat plasma. Short-term stability was assessed by the analysis of the QCs kept at room temperature for 24 h, which exceeded the routine preparation time of the samples. Long-term stability was determined by assaying the QCs after storage for 2 weeks at −20°C. Freeze–thaw stability was investigated after three freeze (−20°C)–thaw (room temperature) cycles. Post-preparative stability was assessed by analyzing the extracted QC samples kept in autosampler at 4°C for 24 h.
# [4] = Metabolic stability assay in human liver microsomes; type: in vitro ADME; conditions: pH 7.4, HLMs 0.1 mg/mL, 37°C, NADPH
# Description: IMB-YH-4py5-2H was incubated at 37°C for 0, 15, 30, 45, and 60 min in human liver microsomes (HLMs) for the metabolic stability study. The incubation system included 0.1 mg/mL pooled liver microsomes, 100 mM phosphate-buffered saline (PBS, pH 7.4), NADPH regeneration system (the final concentration contained 3.3 mM glucose-6-phosphate, 1.3 mM NADP^+, 0.4 U/mL glucose-6-phosphate dehydrogenase and 3.3 mM MgCl2), and 1 μM IMB-YH-4py5-2H.
# After incubation, the samples were processed as described in “Sample processing”. All experiments were performed in triplicate. The concentration of IMB-YH-4py5-2H was measured using LC-MS/MS analysis.
# [5] = extracellular concentration of 2 μg/mL
structure (smiles),measurement,setting,value
"CN(C)C(=O)/C=C/C(=O)c1ccc(-c2ccncc2)cc1.Cl [IMB-YH-4py5-2H, (E)-N,N-dimethyl-4-oxo-4-(4-(pyridin-4-yl)phenyl)but-2-enamide hydrochloride]",concentration at 8 h,"[1]; alveolar macrophages (AMs), 8 h, converted with reported volume of a single AM (Eq 1), read-out: Concentration, AMs",99.7 ± 36.7 µg/mL
same,concentration at 30 h,"[1]; alveolar macrophages (AMs), 30 h, converted with reported volume of a single AM (Eq 1), read-out: Concentration, AMs",25.3 ± 19.4 µg/mL
same,concentration at 0.083 h,"[1]; lung epithelial lining fluid (ELF), 0.083 h, ELF volume taken as 393 μL/rat, read-out: Concentration, ELF",0.639 ± 0.093 µg/mL
same,concentration at 0.5 h,"[1]; lung epithelial lining fluid (ELF), 0.5 h, ELF volume taken as 393 μL/rat, read-out: Concentration, ELF",1.8 ± 0.264 µg/mL
same,concentration at 8 h,"[1]; lung epithelial lining fluid (ELF), 8 h, ELF volume taken as 393 μL/rat, read-out: Concentration, ELF",0.121 ± 0.032 µg/mL
same,concentration at 30 h,"[1]; lung epithelial lining fluid (ELF), 30 h, ELF volume taken as 393 μL/rat, read-out: Concentration, ELF",0.05 ± 0.045 µg/mL
same,concentration at 0.083 h,"[1]; lung homogenate, 0.083 h, read-out: Concentration, lung homogenate",4410 ± 607 ng/g
same,concentration at 0.5 h,"[1]; lung homogenate, 0.5 h, read-out: Concentration, lung homogenate",10900 ± 1960 ng/g
same,concentration at 8 h,"[1]; lung homogenate, 8 h, read-out: Concentration, lung homogenate",107 ± 22 ng/g
same,concentration at 30 h,"[1]; lung homogenate, 30 h, read-out: Concentration, lung homogenate",11 ± 3 ng/g
same,concentration at 0.083 h,"[1]; plasma, 0.083 h, read-out: Concentration, Plasma",0.917 ± 0.071 µg/mL
same,concentration at 0.5 h,"[1]; plasma, 0.5 h, read-out: Concentration, Plasma",1.06 ± 0.192 µg/mL
same,concentration at 8 h,"[1]; plasma, 8 h, read-out: Concentration, Plasma",0.155 ± 0.029 µg/mL
same,concentration at 30 h,"[1]; plasma, 30 h, read-out: Concentration, Plasma",0.039 ± 0.012 µg/mL
same,"Concentration, AMs",[1]; 0.083 h,166.763±40.110 ng/10^5 cells
same,"Concentration, AMs","[1]; 0.083 h, converted with reported volume of a single AM (Eq 1)",1494.295 ± 359.408 µg/mL
same,"Concentration, AMs",[1]; 0.5 h,227.198±35.589 ng/10^5 cells
same,"Concentration, AMs","[1]; 0.5 h, converted with reported volume of a single AM (Eq 1)",2035.827 ± 318.898 µg/mL
same,"Concentration, AMs",[1]; 8 h,11.128±4.099 ng/10^5 cells
same,"Concentration, AMs",[1]; 30 h,2.823±2.164 ng/10^5 cells
same,Log10CFU,[2]; 0.5 μg/mL,6.44±0.02 Log10CFU
same,Log10CFU,[2]; 1 μg/mL,6.40±0.05 Log10CFU
same,Log10CFU,[2]; 2 μg/mL,6.02±0.11 Log10CFU
same,bacterial density reduction on intracellular M. tuberculosis,[2]; [5],~70%
same,reduction on intracellular M. tuberculosis,[2]; [5],0.45 log10CFU
same,"%Theoretical, Autosampler","[3]; autosampler 4°C 24 h, nominal 2.5 ng/mL",100.11 ± 1.20%
same,"%Theoretical, Autosampler","[3]; autosampler 4°C 24 h, nominal 20 ng/mL",103.26 ± 6.07%
same,"%Theoretical, Autosampler","[3]; autosampler 4°C 24 h, nominal 80 ng/mL",97.85 ± 4.96%
same,"%Theoretical, Long-term",[3]; nominal 2.5 ng/mL,92.33 ± 4.21%
same,"%Theoretical, Long-term",[3]; nominal 20 ng/mL,91.65 ± 3.91%
same,"%Theoretical, Long-term",[3]; nominal 80 ng/mL,94.98 ± 7.26%
same,"%Theoretical, 24 h ambient","[3]; room temperature 24 h, nominal 2.5 ng/mL",94.35 ± 3.65%
same,"%Theoretical, 24 h ambient","[3]; room temperature 24 h, nominal 20 ng/mL",91.96± 5.79%
same,"%Theoretical, 24 h ambient","[3]; room temperature 24 h, nominal 80 ng/mL",103.77 ±2.51%
same,"%Theoretical, freeze-thaw","[3]; three freeze-thaw cycles, nominal 2.5 ng/mL",90.11 ± 6.19%
same,"%Theoretical, freeze-thaw","[3]; three freeze-thaw cycles, nominal 20 ng/mL",88.79 ± 3.27%
same,"%Theoretical, freeze-thaw","[3]; three freeze-thaw cycles, nominal 80 ng/mL",94.17 ± 5.10%
same,stability in rat plasma,"[3]; room temperature 24 h, -20°C 2 weeks, three freeze-thaw cycles, autosampler 4°C 24 h",stable
same,half-life at 1 μM,[4],< 15 min
